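Tested at 5 concentrations; 48 h exposure; 96-well plates; endpoints linearly interpolated, else capped at highest concentration. TGI denotes the concentration required for complete inhibition of growth.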
How the values were obtained:
Experiment in all cases: inhibition of tumour cell growth, NCI panel, 48 h
M19-MEL melanoma = system: M19-MEL melanoma
HCC-2998 colon = system: HCC-2998 colon
K-562 leukemia = system: K-562 leukemia
UACC-62 melanoma = system: UACC-62 melanoma
OVCAR-8 ovarian = system: OVCAR-8 ovarian
A549 NSCLC = system: A549 NSCLC
UO-31 renal = system: UO-31 renal
SW-620 colon = system: SW-620 colon
EKVX NSCLC = system: EKVX NSCLC
SNB-75 CNS = system: SNB-75 CNS
SK-MEL-2 melanoma = system: SK-MEL-2 melanoma
UACC-257 melanoma = system: UACC-257 melanoma
SNB-78 CNS = system: SNB-78 CNS
SN12C renal = system: SN12C renal
NCI-H23 lung = system: NCI-H23 lung
NCI-H522 lung = system: NCI-H522 lung
OVCAR-4 ovarian = system: OVCAR-4 ovarian
KM20L2 colon = system: KM20L2 colon
HCT-116 colon = system: HCT-116 colon
SNB-19 CNS = system: SNB-19 CNS
RPMI-8226 leukemia = system: RPMI-8226 leukemia
U251 CNS = system: U251 CNS
XF 498 CNS = system: XF 498 CNS
OVCAR-3 ovarian = system: OVCAR-3 ovarian
SF-295 CNS = system: SF-295 CNS
M14 melanoma = system: M14 melanoma
HT29 colon = system: HT29 colon
DLD-1 colon = system: DLD-1 colon
SF-539 CNS = system: SF-539 CNS
COLO 205 colon = system: COLO 205 colon
SK-MEL-28 melanoma = system: SK-MEL-28 melanoma
MOLT-4 leukemia = system: MOLT-4 leukemia
CCRF-CEM leukemia = system: CCRF-CEM leukemia
OVCAR-5 ovarian = system: OVCAR-5 ovarian
ACHN renal = system: ACHN renal
RXF-631 renal = system: RXF-631 renal
CAKI-1 renal = system: CAKI-1 renal
IGROV1 ovarian = system: IGROV1 ovarian
SK-OV-3 ovarian = system: SK-OV-3 ovarian
A498 renal = system: A498 renal
TK-10 renal = system: TK-10 renal
DMS 273 small cell lung = system: DMS 273 small cell lung
MALME-3M melanoma = system: MALME-3M melanoma
DMS 114 small cell lung = system: DMS 114 small cell lung
KM12 colon = system: KM12 colon
LXFL 529 NSCLC = system: LXFL 529 NSCLC
SK-MEL-5 melanoma = system: SK-MEL-5 melanoma
HL-60(TB) leukemia = system: HL-60(TB) leukemia
LOX IMVI melanoma = system: LOX IMVI melanoma
HOP-62 NSCLC = system: HOP-62 NSCLC
786-0 renal = system: 786-0 renal
SF-268 CNS = system: SF-268 CNS
RXF 393 renal = system: RXF 393 renal
HCT-15 colon = system: HCT-15 colon
SR leukemia = system: SR leukemia
NCI-H460 lung = system: NCI-H460 lung
HOP-92 NSCLC = system: HOP-92 NSCLC
HOP-18 NSCLC = system: HOP-18 NSCLC
NCI-H226 lung = system: NCI-H226 lung

For `CN(C(=O)C12C3C4C1C1C2C3C41C(=O)C(C)(C)C)C(C)(C)C` (centres undefined), the TGI (M19-MEL melanoma) was > 100 µM, the TGI (HCC-2998 colon) was > 100 µM and the TGI (K-562 leukemia) was > 100 µM. For the same compound, the TGI (UACC-62 melanoma) was > 100 µM, the TGI (OVCAR-8 ovarian) was > 100 µM and the TGI (A549 NSCLC) was > 100 µM. The TGI (UO-31 renal) was > 100 µM, the TGI (SW-620 colon) was > 100 µM and the TGI (EKVX NSCLC) was > 100 µM. The TGI (SNB-75 CNS) was > 100 µM, the TGI (SK-MEL-2 melanoma) was > 100 µM and the TGI (UACC-257 melanoma) was > 100 µM. The TGI (SNB-78 CNS) was > 100 µM, the TGI (SN12C renal) was > 100 µM and the TGI (NCI-H23 lung) was > 100 µM. For the same compound, the TGI (NCI-H522 lung) was > 100 µM, the TGI (OVCAR-4 ovarian) was > 100 µM and the TGI (KM20L2 colon) was > 100 µM. For the same compound, the TGI (HCT-116 colon) was > 100 µM, the TGI (SNB-19 CNS) was > 100 µM and the TGI (RPMI-8226 leukemia) was > 100 µM. The TGI (U251 CNS) was > 100 µM, the TGI (XF 498 CNS) was > 100 µM and the TGI (OVCAR-3 ovarian) was > 100 µM. For the same compound, the TGI (SF-295 CNS) was > 100 µM, the TGI (M14 melanoma) was > 100 µM and the TGI (HT29 colon) was > 100 µM. For the same compound, the TGI (DLD-1 colon) was > 100 µM, the TGI (SF-539 CNS) was > 100 µM and the TGI (COLO 205 colon) was > 100 µM. The TGI (SK-MEL-28 melanoma) was > 100 µM, the TGI (MOLT-4 leukemia) was > 100 µM and the TGI (CCRF-CEM leukemia) was > 100 µM. For the same compound, the TGI (OVCAR-5 ovarian) was > 100 µM, the TGI (ACHN renal) was > 100 µM and the TGI (RXF-631 renal) was > 100 µM. For the same compound, the TGI (CAKI-1 renal) was > 100 µM, the TGI (IGROV1 ovarian) was > 100 µM and the TGI (SK-OV-3 ovarian) was > 100 µM. For the same compound, the TGI (A498 renal) was > 100 µM, the TGI (TK-10 renal) was > 100 µM and the TGI (DMS 273 small cell lung) was > 100 µM. The TGI (MALME-3M melanoma) was > 100 µM, the TGI (DMS 114 small cell lung) was > 100 µM and the TGI (KM12 colon) was > 100 µM. For the same compound, the TGI (LXFL 529 NSCLC) was > 100 µM, the TGI (SK-MEL-5 melanoma) was > 100 µM and the TGI (HL-60(TB) leukemia) was > 100 µM. For the same compound, the TGI (LOX IMVI melanoma) was > 100 µM, the TGI (HOP-62 NSCLC) was > 100 µM and the TGI (786-0 renal) was > 100 µM. For the same compound, the TGI (SF-268 CNS) was > 100 µM.
`COC(=O)C(=O)C(C(=O)C=C(C)C)C(=O)C(=O)Nc1cc(C(F)(F)F)ccc1Cl` (centres undefined) was tested, and the TGI (HCC-2998 colon) was > 100 µM, the TGI (K-562 leukemia) was > 100 µM and the TGI (UACC-62 melanoma) was > 100 µM. The TGI (OVCAR-8 ovarian) was > 100 µM, the TGI (A549 NSCLC) was > 100 µM and the TGI (UO-31 renal) was > 100 µM. For the same compound, the TGI (EKVX NSCLC) was > 100 µM, the TGI (SNB-75 CNS) was > 100 µM and the TGI (SK-MEL-2 melanoma) was > 100 µM. The TGI (UACC-257 melanoma) was > 100 µM, the TGI (SNB-78 CNS) was > 100 µM and the TGI (SN12C renal) was > 100 µM. For the same compound, the TGI (NCI-H23 lung) was > 100 µM, the TGI (NCI-H522 lung) was > 100 µM and the TGI (OVCAR-4 ovarian) was > 100 µM. For the same compound, the TGI (KM20L2 colon) was > 100 µM, the TGI (HCT-116 colon) was > 100 µM and the TGI (SNB-19 CNS) was > 100 µM. For the same compound, the TGI (RPMI-8226 leukemia) was 67 µM, the TGI (U251 CNS) was > 100 µM and the TGI (XF 498 CNS) was > 100 µM. The TGI (OVCAR-3 ovarian) was > 100 µM, the TGI (SF-295 CNS) was > 100 µM and the TGI (M14 melanoma) was > 100 µM. For the same compound, the TGI (RXF 393 renal) was > 100 µM, the TGI (HT29 colon) was > 100 µM and the TGI (DLD-1 colon) was > 100 µM. For the same compound, the TGI (SF-539 CNS) was > 100 µM, the TGI (COLO 205 colon) was > 100 µM and the TGI (HCT-15 colon) was > 100 µM. The TGI (SK-MEL-28 melanoma) was > 100 µM, the TGI (MOLT-4 leukemia) was > 100 µM and the TGI (CCRF-CEM leukemia) was 71.2 µM. The TGI (OVCAR-5 ovarian) was > 100 µM, the TGI (ACHN renal) was > 100 µM and the TGI (RXF-631 renal) was > 100 µM. For the same compound, the TGI (CAKI-1 renal) was > 100 µM, the TGI (SR leukemia) was 39.9 µM and the TGI (IGROV1 ovarian) was > 100 µM. The TGI (SK-OV-3 ovarian) was > 100 µM, the TGI (A498 renal) was > 100 µM and the TGI (TK-10 renal) was > 100 µM. For the same compound, the TGI (DMS 273 small cell lung) was > 100 µM, the TGI (MALME-3M melanoma) was > 100 µM and the TGI (NCI-H460 lung) was > 100 µM. The TGI (DMS 114 small cell lung) was > 100 µM, the TGI (KM12 colon) was > 100 µM and the TGI (LXFL 529 NSCLC) was > 100 µM. For the same compound, the TGI (HOP-92 NSCLC) was > 100 µM, the TGI (SK-MEL-5 melanoma) was > 100 µM and the TGI (HOP-18 NSCLC) was > 100 µM. The TGI (HL-60(TB) leukemia) was > 100 µM, the TGI (LOX IMVI melanoma) was > 100 µM and the TGI (HOP-62 NSCLC) was > 100 µM. For the same compound, the TGI (786-0 renal) was > 100 µM, the TGI (NCI-H226 lung) was > 100 µM and the TGI (SF-268 CNS) was > 100 µM.
